Data: patent publication US20150344540A1, “NOVEL GLP-1 RECEPTOR AGONISTS WITH CHOLESTEROL EFFLUX ACTIVITY” (NOVO NORDISK A/S, priority 2012, published 2015)
Like-named read-outs stand apart in the source and are kept apart here. Where a SMILES comes first, the peptide text is derived from it. [ ]: non-standard residue; d: D form. Aib = CC(C)(N)C(=O)O

Assays:
[1] = test system: Mouse monocyte/macrophage cell line, RAW 264.7; assay: Cholesterol efflux assay (3H-cholesterol, macrophage cell line); type: cell-based; conditions: RAW 264.7, 4 hrs incubation, 0.1% human serum albumin; for 4 h Cholesterol Efflux Emax: ABCA1-mediated efflux
human GLP-1 receptor = human GLP-1 receptor (Homo sapiens, UniProt P43220); assay: Functional GLP-1 receptor assay, in vitro potency (CRE luciferase; whole cells); type: cell-based
Chain of human GLP-1 receptor (P43220 24-463): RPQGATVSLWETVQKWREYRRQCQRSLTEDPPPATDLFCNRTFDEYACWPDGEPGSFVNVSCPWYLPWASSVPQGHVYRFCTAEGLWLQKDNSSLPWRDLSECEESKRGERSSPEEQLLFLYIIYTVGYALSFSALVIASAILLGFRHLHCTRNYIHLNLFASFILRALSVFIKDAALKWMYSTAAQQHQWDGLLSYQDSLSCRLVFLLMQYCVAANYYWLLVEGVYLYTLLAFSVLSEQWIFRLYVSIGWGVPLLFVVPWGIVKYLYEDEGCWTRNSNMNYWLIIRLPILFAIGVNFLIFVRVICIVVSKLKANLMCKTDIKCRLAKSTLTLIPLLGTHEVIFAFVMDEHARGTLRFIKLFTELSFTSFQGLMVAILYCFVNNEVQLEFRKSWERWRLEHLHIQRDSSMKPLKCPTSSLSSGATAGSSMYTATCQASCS

[2] = BHK cells expressing human GLP-1 receptor, 0% HSA, read-out: GLP1R CRE luc 0% HSA EC50 Mean Value
[3] = GLP1R CRE luc 1% HSA EC50 Mean Value, BHK cells expressing human GLP-1 receptor, 1% HSA

| Structure (SMILES) | 4 h Cholesterol Efflux Emax [1] [%] | EC50 (human GLP-1 receptor; [2]) [nM] | EC50 (human GLP-1 receptor; [3]) [nM] | EC50 ([1]; read-out: 4 h Cholesterol Efflux EC50, ABCA1-mediated efflux (CPT-cAMP induced minus non-induced)) [nM] | EC50 (human GLP-1 receptor; GLP1R CRE luc 0% HSA EC50 Mean Value) [nM] | EC50 (human GLP-1 receptor; GLP1R CRE luc 1% HSA EC50 Mean Value) [nM] |
| --- | --- | --- | --- | --- | --- | --- |
| CC[C@H](C)[C@H](NC(=O)[C@H](Cc1ccccc1)NC(=O)[C@H](CCC(=O)O)NC(=O)[C@H](CCCCN)NC(=O)[C@@H](NC(=O)[C@H](C)NC(=O)[C@H](CCC(=O)O)NC(=O)CNC(=O)[C@H](CCC(=O)O)NC(=O)[C@H](CC(C)C)NC(=O)[C@H](Cc1ccc(O)cc1)NC(=O)[C@H](CO)NC(=O)[C@H](CO)NC(=O)[C@@H](NC(=O)[C@H](CC(=O)O)NC(=O)[C@H](CO)NC(=O)[C@@H](NC(=O)[C@H](Cc1ccccc1)NC(=O)[C@@H](NC(=O)CNC(=O)[C@H](CCC(=O)O)NC(=O)C(C)(C)NC(=O)[C@@H](N)Cc1c[nH]cn1)[C@@H](C)O)[C@@H](C)O)C(C)C)C(C)C)C(=O)N[C@@H](C)C(=O)N[C@@H](Cc1c[nH]c2ccccc12)C(=O)N[C@@H](CC(C)C)C(=O)N[C@H](C(=O)N[C@@H](CCC(=O)O)C(=O)N[C@@H](CCCCN)C(=O)N[C@H](C(=O)N[C@@H](CCCCN)C(=O)N[C@@H](CCC(=O)O)C(=O)N[C@@H](CCC(=O)O)C(=O)N[C@@H](CC(C)C)C(N)=O)C(C)C)C(C)C [Compound 116, [Aib8,Glu23,Val25,Glu34,Lys35,Val36,Lys37]-GLP-1-(7-37)-peptidyl-Glu-Glu-Leu amide] (H-H[Aib]EGTFTSDVSSYLEGEAVKEFIAWLVEKVKEEL-NH2) | 131 | 0.025 | 0.016 | – | – | – |
| CC[C@H](C)[C@H](NC(=O)[C@H](Cc1ccccc1)NC(=O)[C@H](CCC(=O)O)NC(=O)[C@H](CCCNC(=N)N)NC(=O)[C@@H](NC(=O)[C@H](C)NC(=O)[C@H](CCC(=O)O)NC(=O)[C@H](CCC(=O)O)NC(=O)[C@H](CCC(=O)O)NC(=O)[C@H](CCSC)NC(=O)[C@H](CCC(N)=O)NC(=O)[C@H](CCCCN)NC(=O)[C@H](CO)NC(=O)[C@H](CC(C)C)NC(=O)[C@H](CC(=O)O)NC(=O)[C@H](CO)NC(=O)[C@@H](NC(=O)[C@H](Cc1ccccc1)NC(=O)[C@@H](NC(=O)CNC(=O)[C@H](CCC(=O)O)NC(=O)C(C)(C)NC(=O)[C@@H](N)Cc1c[nH]cn1)[C@@H](C)O)[C@@H](C)O)C(C)C)C(=O)N[C@@H](CCC(=O)O)C(=O)N[C@@H](Cc1c[nH]c2ccccc12)C(=O)N[C@@H](CC(C)C)C(=O)N[C@@H](CCCCN)C(=O)N[C@@H](CC(N)=O)C(=O)N[C@@H](CCCCN)C(=O)NC(C)(C)C(=O)N[C@@H](CC(C)C)C(=O)N[C@@H](CCC(=O)O)C(=O)N[C@@H](CO)C(=O)N[C@@H](CC(C)C)C(=O)N[C@@H](CCC(=O)O)C(=O)N[C@@H](CC(C)C)C(=O)N[C@@H](CC(C)C)C(N)=O [Compound 37, [Aib2,Glu21,Lys29,Aib30,Leu31,Glu32,Leu34,Glu35,Leu36,Leu371-Exendin-4-(1-37)-peptide amide] (H-H[Aib]EGTFTSDLSKQMEEEAVREFIEWLKNK[Aib]LESLELL-NH2; N-terminus assumed) | 102 | 0.023 | 0.011 | – | – | – |
| CC[C@H](C)[C@H](NC(=O)[C@H](Cc1ccccc1)NC(=O)[C@H](CCC(=O)O)NC(=O)[C@H](CCCCN)NC(=O)[C@@H](NC(=O)[C@H](C)NC(=O)[C@H](CCC(=O)O)NC(=O)CNC(=O)[C@H](CCC(=O)O)NC(=O)[C@H](CC(C)C)NC(=O)[C@H](Cc1ccc(O)cc1)NC(=O)[C@H](CO)NC(=O)[C@H](CO)NC(=O)[C@@H](NC(=O)[C@H](CC(=O)O)NC(=O)[C@H](CO)NC(=O)[C@@H](NC(=O)[C@H](Cc1ccccc1)NC(=O)[C@@H](NC(=O)CNC(=O)[C@H](CCC(=O)O)NC(=O)C(C)(C)NC(=O)[C@@H](N)Cc1c[nH]cn1)[C@@H](C)O)[C@@H](C)O)C(C)C)C(C)C)C(=O)N[C@@H](Cc1c[nH]c2ccccc12)C(=O)N[C@@H](Cc1c[nH]c2ccccc12)C(=O)N[C@@H](CC(C)C)C(=O)N[C@H](C(=O)N[C@@H](CCC(=O)O)C(=O)N[C@@H](CCCCN)C(=O)NC(C)(C)C(=O)N[C@@H](CCCCN)C(=O)N[C@@H](CCC(=O)O)C(=O)N[C@@H](Cc1ccccc1)C(=O)N[C@@H](CC(C)C)C(N)=O)C(C)C [Compound 50, [Aib8,Glu23,Val25,Trp30,Glu34,Lys35,Aib36,Lys37]-GLP-1-(7-37)-peptidyl-Glu-Phe-Leu amide] (H-H[Aib]EGTFTSDVSSYLEGEAVKEFIWWLVEK[Aib]KEFL-NH2) | 87 | 0.157 | – | – | – | – |
| CC[C@H](C)[C@H](NC(=O)[C@H](Cc1ccccc1)NC(=O)[C@H](CCC(=O)O)NC(=O)[C@H](CCC(N)=O)NC(=O)[C@@H](NC(=O)[C@H](C)NC(=O)[C@H](CCC(=O)O)NC(=O)CNC(=O)[C@H](CCC(=O)O)NC(=O)[C@H](CC(C)C)NC(=O)[C@H](Cc1ccc(O)cc1)NC(=O)[C@H](CO)NC(=O)[C@H](CO)NC(=O)[C@@H](NC(=O)[C@H](CC(=O)O)NC(=O)[C@H](CO)NC(=O)[C@@H](NC(=O)[C@H](Cc1ccccc1)NC(=O)[C@@H](NC(=O)CNC(=O)[C@H](CCC(=O)O)NC(=O)C(C)(C)NC(=O)[C@@H](N)Cc1c[nH]cn1)[C@@H](C)O)[C@@H](C)O)C(C)C)C(C)C)C(=O)N[C@@H](C)C(=O)N[C@@H](Cc1c[nH]c2ccccc12)C(=O)N[C@@H](CC(C)C)C(=O)N[C@H](C(=O)N[C@@H](CCC(=O)O)C(=O)N[C@@H](CCC(N)=O)C(=O)NC(C)(C)C(=O)N[C@@H](CCC(N)=O)C(=O)N[C@@H](CCC(=O)O)C(=O)N[C@@H](Cc1ccccc1)C(=O)N[C@@H](CC(C)C)C(N)=O)C(C)C [Compound 95] (H-H[Aib]EGTFTSDVSSYLEGEAVQEFIAWLVEQ[Aib]QEFL-NH2) | 59 | – | 0.04 | – | – | – |
| CC(C)C[C@H](NC(=O)[C@H](Cc1ccccc1)NC(=O)[C@H](CCC(=O)O)NC(=O)[C@H](CCCCN)NC(=O)C(C)(C)NC(=O)[C@H](CCCCN)NC(=O)[C@H](CCC(=O)O)NC(=O)[C@H](CC(C)C)NC(=O)[C@H](CC(C)C)NC(=O)[C@H](Cc1c[nH]c2ccccc12)NC(=O)[C@H](CCC(N)=O)NC(=O)[C@@H](NC(=O)[C@H](Cc1ccccc1)NC(=O)[C@H](CCC(=O)O)NC(=O)[C@H](CCCNC(=N)N)NC(=O)[C@@H](NC(=O)[C@H](C)NC(=O)[C@H](CCC(=O)O)NC(=O)CNC(=O)[C@H](CCC(=O)O)NC(=O)[C@H](CC(C)C)NC(=O)[C@H](Cc1ccc(O)cc1)NC(=O)[C@H](CO)NC(=O)[C@H](CO)NC(=O)[C@@H](NC(=O)[C@H](CC(=O)O)NC(=O)[C@H](CO)NC(=O)[C@@H](NC(=O)[C@H](Cc1ccccc1)NC(=O)[C@@H](NC(=O)CNC(=O)[C@H](CCC(=O)O)NC(=O)C(C)(C)NC(=O)[C@@H](N)Cc1c[nH]cn1)[C@@H](C)O)[C@@H](C)O)C(C)C)C(C)C)C(C)C)C(N)=O [Compound 80, [Aib8,Glu23,Val25,Arq26,Val29,Gln30,Leu33,Glu34,Lys35,Aib36,Lys37]-GLP-1-(7-37)-peptidyl-Glu-Phe-Leu amide] (H-H[Aib]EGTFTSDVSSYLEGEAVREFVQWLLEK[Aib]KEFL-NH2) | 108 | – | 0.029 | – | – | – |
| CC[C@H](C)[C@H](NC(=O)[C@H](Cc1ccccc1)NC(=O)[C@H](CCC(=O)O)NC(=O)[C@H](CCCCN)NC(=O)[C@@H](NC(=O)[C@H](C)NC(=O)[C@H](CCC(=O)O)NC(=O)CNC(=O)[C@H](CCC(=O)O)NC(=O)[C@H](CC(C)C)NC(=O)[C@H](Cc1ccc(O)cc1)NC(=O)[C@H](CO)NC(=O)[C@H](CO)NC(=O)[C@@H](NC(=O)[C@H](CC(=O)O)NC(=O)[C@H](CO)NC(=O)[C@@H](NC(=O)[C@H](Cc1ccccc1)NC(=O)[C@@H](NC(=O)CNC(=O)[C@H](CCC(=O)O)NC(=O)C(C)(C)NC(=O)[C@@H](N)Cc1c[nH]cn1)[C@@H](C)O)[C@@H](C)O)C(C)C)C(C)C)C(=O)N[C@@H](C)C(=O)N[C@@H](Cc1c[nH]c2ccccc12)C(=O)N[C@@H](CC(C)C)C(=O)N[C@H](C(=O)NCC(=O)NC(C)(C)C(=O)N[C@@H](CCCCN)C(=O)N[C@@H](CCC(=O)O)C(=O)N[C@@H](Cc1ccccc1)C(=O)N[C@@H](CC(C)C)C(N)=O)C(C)C [Compound 10] (H-H[Aib]EGTFTSDVSSYLEGEAVKEFIAWLVG[Aib]KEFL-NH2) | 79 | 0.01 | 0.004 | – | – | – |
| CC(C)C[C@H](NC(=O)[C@H](Cc1ccccc1)NC(=O)[C@H](CCC(=O)O)NC(=O)[C@H](CCCCN)NC(=O)C(C)(C)NC(=O)[C@H](CCCCN)NC(=O)[C@H](CCC(=O)O)NC(=O)[C@@H](NC(=O)[C@H](CC(C)C)NC(=O)[C@H](Cc1c[nH]c2ccccc12)NC(=O)[C@H](C)NC(=O)[C@@H](NC(=O)[C@H](Cc1ccccc1)NC(=O)[C@H](CCC(=O)O)NC(=O)[C@H](CCCCN)NC(=O)[C@@H](NC(=O)[C@H](C)NC(=O)[C@H](CCC(=O)O)NC(=O)CNC(=O)[C@H](CCC(=O)O)NC(=O)[C@H](CC(C)C)NC(=O)[C@H](Cc1ccc(O)cc1)NC(=O)[C@H](CO)NC(=O)[C@H](CO)NC(=O)[C@@H](NC(=O)[C@H](CC(=O)O)NC(=O)[C@H](CO)NC(=O)[C@@H](NC(=O)[C@H](Cc1ccccc1)NC(=O)[C@@H](NC(=O)CNC(=O)[C@H](CCC(=O)O)NC(=O)C(C)(C)NC(=O)[C@@H](N)Cc1c[nH]cn1)[C@@H](C)O)[C@@H](C)O)C(C)C)C(C)C)C(C)C)C(C)C)C(N)=O [Compound 82, [Aib8,Glu23,Val25,Val29,Glu34,Lys35,Aib36,Lys37]-GLP-1-(7-37)-peptidyl-Glu-Phe-Leu amide] (H-H[Aib]EGTFTSDVSSYLEGEAVKEFVAWLVEK[Aib]KEFL-NH2; N-terminus assumed) | 120 | – | – | 690 | 0.111 | 0.036 |
